Test results from article PMC2787699 (Biochemistry, 2009).

Molecular target: T1, TalrD/GalrD (Salmonella enterica, UniProt Q8ZL58)
T1 sequence (Q8ZL58 1-398): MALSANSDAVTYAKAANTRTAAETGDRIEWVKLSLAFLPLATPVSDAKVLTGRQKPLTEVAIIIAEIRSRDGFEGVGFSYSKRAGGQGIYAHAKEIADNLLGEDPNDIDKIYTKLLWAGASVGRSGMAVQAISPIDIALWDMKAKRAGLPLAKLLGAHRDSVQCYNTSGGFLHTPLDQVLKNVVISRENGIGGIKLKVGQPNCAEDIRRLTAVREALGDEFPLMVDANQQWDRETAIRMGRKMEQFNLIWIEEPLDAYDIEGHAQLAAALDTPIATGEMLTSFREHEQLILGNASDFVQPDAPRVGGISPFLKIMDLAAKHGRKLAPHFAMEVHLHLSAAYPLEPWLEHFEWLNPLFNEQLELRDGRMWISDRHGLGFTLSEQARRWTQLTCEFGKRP
Experiment: polarimetry at […] nm, product formation
Assay type: biochemical
Settings: 10 mM galactarate, 50 mM Hepes pH 8.0, 5 mM MgCl2, room temperature

With `O=C(O)[C@@H](O)[C@H](O)[C@H](O)[C@@H](O)C(=O)O` [galactarate] the “polarimetry at 589 nm, product formation” value was “TalrD/GalrD produces a product with a positive rotation”.
